{"source": "the METLIN SMRT retention time set (Domingo-Almenara et al. 2019)", "data": [{"test": "gradient 5% acetonitrile 3 min, to 50% in 2 min, to 85% in 15 min, held 3 min, 100 µL/min", "conditions": "column: Zorbax Extend-C18 2.1 x 50 mm; eluents: water / acetonitrile, 0.1% formic acid", "method_in_brief": "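Retention times of pure standards were taken from adduct peaks that were selected by computer and manually inspected. Over 3 months, mixtures of ~100 molecules were run by HPLC–quadrupole time-of-flight mass spectrometry in positive and negative ionization mode. The Zorbax Extend-C18 column (2.1 × 50 mm, 1.8 μm) ran at 100 μL/min in water and acetonitrile, each containing 0.1% formic acid, with 40 μL dead volume and 900 μL dwell volume.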", "units": {"RP-LC retention time": "s"}, "values": [{"smiles": "COC(=O)c1ncn2c1C(=O)N(Cc1cccc(Cl)c1)C(C)(C(=O)NCc1ccccc1)C2", "note": "(configuration not stated)", "RP-LC retention time": 755}, {"smiles": "O=C1COc2ccc(S(=O)(=O)N3CCC(C(=O)Nc4ccc5c(c4)OCO5)CC3)cc2N1", "RP-LC retention time": 715}, {"smiles": "Cc1ccc2c(=O)c3c([nH]c2c1C)CCN(CC(=O)Nc1ccc(Cl)c(F)c1)C3", "RP-LC retention time": 662}, {"smiles": "Cn1nc(C2CCN(C(=O)C3CCC3)CC2)c2c1CCOC2", "RP-LC retention time": 659}, {"smiles": "O=C(NC1CC1)C1CCN(c2nc3ccc(-c4cccnc4)nc3s2)CC1", "RP-LC retention time": 598}, {"smiles": "O=C(c1cc(-c2cccnc2)n[nH]1)N1CCC(C(=O)N2CCN(c3ccc(Cl)cc3)CC2)CC1", "RP-LC retention time": 694}, {"smiles": "O=C(Nc1ccccc1)N1CCCC(Cn2c(C3CC3)nc3cccnc32)C1", "note": "(configuration not stated)", "RP-LC retention time": 655}, {"smiles": "O=c1ccn(-c2cccc(F)c2)nc1-c1nc(-c2ccccc2F)no1", "RP-LC retention time": 846}, {"smiles": "O=C(CCc1c(-c2ccccc2)nc2ccccn12)NCc1cccc(Br)c1", "RP-LC retention time": 691}, {"smiles": "N#CCCSc1ccccc1NC(=O)c1ccc(C(=O)c2ccccc2)cc1", "RP-LC retention time": 924}, {"smiles": "CC(=O)N(C1CCOCC1)C1CCN(S(=O)(=O)c2ccccc2)CC1", "RP-LC retention time": 712}, {"smiles": "Cc1cc(OCC(=O)Nc2ccccc2C(F)(F)F)nc(N2CCN(c3ccccc3)CC2)n1", "RP-LC retention time": 971}, {"smiles": "CNC(=O)c1cc(C)n(C)n1", "RP-LC retention time": 835}, {"smiles": "CCOC(=O)C1CCN(c2nc(=O)n(CC(=O)Nc3ccccc3C)c3ccccc23)CC1", "RP-LC retention time": 790}, {"smiles": "Cc1cnc(-c2ccccc2)n1CCNS(=O)(=O)c1cccc(F)c1", "RP-LC retention time": 633}, {"smiles": "CCOc1ccccc1C(=O)NCC(c1ccc(N(C)C)cc1)N(C)C", "note": "(configuration not stated)", "RP-LC retention time": 572}, {"smiles": "O=C1COc2cc(S(=O)(=O)N3CCCC3C(=O)NCc3ccc(F)cc3)c(Cl)cc2N1", "note": "(configuration not stated)", "RP-LC retention time": 745}, {"smiles": "CS(=O)(=O)N1CC(c2noc(-c3cccnc3)n2)C2(CCOCC2)C1", "note": "(configuration not stated)", "RP-LC retention time": 660}, {"smiles": "CCc1ccc(-c2cc3c(=O)n(CC(=O)NCC4CCCN4CC)ncn3n2)cc1", "note": "(configuration not stated)", "RP-LC retention time": 689}, {"smiles": "CCOC(=O)C1CCN(c2ncccc2-c2nnc(-c3ccc(Cl)cc3)o2)CC1", "RP-LC retention time": 1240}, {"smiles": "CCCSCCCNC(=O)c1cc2n(n1)CCCN(Cc1ccc(F)cc1)C2=O", "RP-LC retention time": 827}, {"smiles": "Cc1ccc(N2CC(c3nc(-c4ccc5c(c4)OCO5)no3)CC2=O)c(C)c1", "note": "(configuration not stated)", "RP-LC retention time": 911}, {"smiles": "O=C(C1CCCO1)N1CCC(CCOc2ccccc2F)CC1", "note": "(configuration not stated)", "RP-LC retention time": 879}, {"smiles": "CC1CCC(NC(=O)C2c3ccccc3C(=O)N2CCCN2CCOCC2)CC1", "note": "(configuration not stated)", "RP-LC retention time": 640}, {"smiles": "CC(C)CN1Cc2ccccc2-n2ccnc2C12CCN(C(=O)c1ccccn1)CC2", "RP-LC retention time": 631}, {"smiles": "Cn1ncc2c3ccccc3n(CC(=O)NCCCN3CCCCCC3)c2c1=O", "RP-LC retention time": 561}, {"smiles": "Cc1ccc(NC(=O)C2CCN(S(=O)(=O)c3cc(-c4noc(C5CCC5)n4)cs3)CC2)cc1", "RP-LC retention time": 1020}, {"smiles": "O=C(NCCn1nc(-c2ccco2)ccc1=O)c1ccc2ncsc2c1", "RP-LC retention time": 610}, {"smiles": "CCN1CCN(c2cc(C)c3cc(NC(=S)NCc4ccc(C)cc4)ccc3n2)CC1", "RP-LC retention time": 617}, {"smiles": "O=C1NCCCCCCN(C(=O)c2ccc3ccccc3n2)[C@H]2C[C@H](C(=O)N3CCc4ccccc4C3)C[C@@H]12", "RP-LC retention time": 896}, {"smiles": "CC1CN(C(=O)CCC(=O)NCCCN2CCC(N3CCCCC3)CC2)c2ccccc2O1", "note": "(configuration not stated)", "RP-LC retention time": 573}, {"smiles": "O=C(O)c1nnn(-c2ccc3c(c2)OCO3)c1-c1cccnc1", "RP-LC retention time": 602}, {"smiles": "O=C(CNC(=O)c1ccccc1)NCCSc1ccc(C(=O)Nc2ccccc2)cn1", "RP-LC retention time": 728}, {"smiles": "CCN1CCCc2cc(C(=O)NC3CCCC3)sc21", "RP-LC retention time": 961}, {"smiles": "O=C(CSc1nccc2ccccc12)Nc1ccccc1C(F)(F)F", "RP-LC retention time": 1080}, {"smiles": "O=c1c2scc(-c3cccc(F)c3)c2ncn1Cc1cc(=O)n2ccccc2n1", "RP-LC retention time": 809}, {"smiles": "O=C(NCc1ccco1)N1CCc2nc(-c3ccc(F)cc3)ncc2C1", "RP-LC retention time": 813}, {"smiles": "Cc1cccc(CNC(=O)C2(C)Cn3cnc(C(=O)N(C)Cc4ccccc4)c3C(=O)N2C2CC2)c1", "note": "(configuration not stated)", "RP-LC retention time": 816}, {"smiles": "Fc1ccccc1-c1noc(Cc2nnc(-c3ccc(Cl)cc3)o2)n1", "RP-LC retention time": 1100}, {"smiles": "COc1cccc(N2CCN(c3ccnc(SCC(=O)NCCCc4ccccc4)n3)CC2)c1", "RP-LC retention time": 804}, {"smiles": "COc1ccc(OC)c(NS(=O)(=O)c2cc3c4c(c2)CCC(=O)N4CCC3)c1", "RP-LC retention time": 804}, {"smiles": "CCOC(=O)C(CC)n1nc2ccc(S(=O)(=O)N3CCC(C)CC3)cn2c1=O", "note": "(configuration not stated)", "RP-LC retention time": 990}, {"smiles": "O=C(Cc1ccc(F)cc1)N1CCN(CC(O)c2cccs2)CC1", "note": "(configuration not stated)", "RP-LC retention time": 569}, {"smiles": "CCOc1ccc(C(=O)N2CCN(c3ccc(-c4nc(C)cs4)cn3)CC2)cc1", "RP-LC retention time": 884}, {"smiles": "O=C(C1CCN(S(=O)(=O)c2ccc3[nH]c(=O)ccc3c2)CC1)N1CCOCC1", "RP-LC retention time": 613}, {"smiles": "O=C(N[C@H]1C[C@@H]2C[C@H]1CN2C(=O)c1ccc(OC(F)(F)F)cc1)c1ccccc1", "RP-LC retention time": 786}, {"smiles": "CCCN(Cc1cccs1)C(=O)Nc1cc(OC)c(OC)c(OC)c1", "RP-LC retention time": 875}, {"smiles": "COC(=O)c1cc(OCC(=O)Nc2cc(Cl)ccc2OC)c2cc(OC)ccc2n1", "RP-LC retention time": 970}, {"smiles": "Cc1noc(-c2cc(=O)n(CC(=O)NCc3cccs3)c3ccccc23)n1", "RP-LC retention time": 795}, {"smiles": "COc1ccc(NS(=O)(=O)c2cc3c4c(c2)CCC(=O)N4CCC3)cc1OC", "RP-LC retention time": 730}, {"smiles": "O=C(CCc1nc2ccccc2s1)N1CCC(c2noc(-c3ccncc3)n2)C1", "note": "(configuration not stated)", "RP-LC retention time": 760}, {"smiles": "Cn1cnc(S(=O)(=O)N2[C@H]3CC[C@@H]2c2cnc(-c4ccccc4)nc2C3)c1", "RP-LC retention time": 763}, {"smiles": "Cc1ccccc1Nc1c(-c2cccc(Cl)c2)nc2ccc(Br)cn12", "RP-LC retention time": 1120}, {"smiles": "COC(=O)c1ccc2c(=O)n(Cc3ccccc3)c(N3CCOCC3)nc2c1", "RP-LC retention time": 953}, {"smiles": "CNC(=O)[C@@H]1CN(C(=O)c2ccc(Cl)s2)C[C@H]1c1nc(COC)no1", "RP-LC retention time": 698}, {"smiles": "O=C(Cn1c(=O)c(CCC(=O)NC2CCCC2)nc2ccccc21)Nc1ccc(Cl)cc1F", "RP-LC retention time": 885}, {"smiles": "Cc1occc1C(=O)N[C@@H]1CN(S(C)(=O)=O)C[C@H]1CN(C)C", "RP-LC retention time": 573}, {"smiles": "CNC(=O)c1cc(-c2cccc(F)c2)nc2ccccc12", "RP-LC retention time": 850}, {"smiles": "Nc1nc(CN2CCN(c3ccccn3)CC2)nc(N2CCCCC2)n1", "RP-LC retention time": 561}, {"smiles": "CCCCNC(=O)c1ccc2c(c1)NC(=O)C(C(C)C)N2", "note": "(configuration not stated)", "RP-LC retention time": 684}, {"smiles": "COc1ncccc1CNC(=O)CCc1c(C)noc1C", "RP-LC retention time": 556}, {"smiles": "COC(=O)c1cc2c(=O)n(-c3cccc(Cl)c3Cl)ccc2nc1C", "RP-LC retention time": 915}, {"smiles": "CCOC(=O)CC(=O)N1CCSC1COc1ccccc1OC", "note": "(configuration not stated)", "RP-LC retention time": 903}, {"smiles": "CC(=O)N1CCc2cc(N3CC(C(=O)NCc4ccccc4)CC3=O)ccc21", "note": "(configuration not stated)", "RP-LC retention time": 671}, {"smiles": "Cc1ccc(-c2coc(-c3ccc(NC(=O)NCc4ccc(F)cc4)cc3)n2)c(C)c1", "RP-LC retention time": 1180}, {"smiles": "CCOc1ccccc1CNS(=O)(=O)c1ccc(-c2c(C)noc2C)cc1", "RP-LC retention time": 995}, {"smiles": "CCOc1ccc(-c2nc(Cn3cnc4nc5c(cc4c3=O)CCCC5)c(C)o2)cc1", "RP-LC retention time": 870}, {"smiles": "COc1ccc(-c2cn3c(CC(=O)N4CCN(c5ccccc5F)CC4)csc3n2)cc1OC", "RP-LC retention time": 780}, {"smiles": "COc1ccc2oc(-c3ccncc3)cc(=O)c2c1", "RP-LC retention time": 701}, {"smiles": "CCn1cc(-c2nc(C(=O)N3CCc4ccccc43)cs2)c2cccnc21", "RP-LC retention time": 1080}, {"smiles": "O=C(Cn1ccn2nc(-c3ccccc3)c(CO)c2c1=O)Nc1ccc2c(c1)OCO2", "RP-LC retention time": 1030}, {"smiles": "CCOC(=O)c1nc(NC2CCN(Cc3ccccc3)CC2)c2ccccc2n1", "RP-LC retention time": 607}, {"smiles": "Cn1nc(C(=O)N2CCCCC2)c2c1CCN(C(=O)CCC(=O)NCCN1CCCC1)C2", "RP-LC retention time": 578}, {"smiles": "COC(=O)c1nc(NC(=O)Cn2nc3c(cc2=O)CCCC3)sc1CC(C)C", "RP-LC retention time": 855}, {"smiles": "O=S(=O)(c1ccc2c(c1)CCC2)N1CCCC1c1nc(-c2ccc(Cl)cc2)no1", "note": "(configuration not stated)", "RP-LC retention time": 1310}, {"smiles": "O=C(N[C@H]1C[C@@H]2C[C@H]1N(C(=O)CSc1ccccc1)C2)c1ccccc1", "RP-LC retention time": 786}, {"smiles": "COCCNC(=O)C1CCN(c2nccnc2Sc2cccc(C)c2)CC1", "RP-LC retention time": 826}, {"smiles": "O=C(NCc1cccs1)C1CCCN(c2nc3ccccc3n(Cc3ccccc3)c2=O)C1", "note": "(configuration not stated)", "RP-LC retention time": 1100}, {"smiles": "CC(C)CCN1CCC(N2CCN(S(=O)(=O)c3ccccc3Cl)CC2)C1=O", "note": "(configuration not stated)", "RP-LC retention time": 668}, {"smiles": "Cc1cn(C)c(CC(=O)N2CCCCCC2)c1C(=O)O", "RP-LC retention time": 664}, {"smiles": "O=C(NCCC1=CCCCC1)C1CCN(Cc2cc3ccccc3n2Cc2ccc(Cl)cc2)CC1", "RP-LC retention time": 917}, {"smiles": "CCOc1cc(C(=O)Nc2ccc(Cl)c(-c3nc4ccccc4[nH]3)c2)cc(OCC)c1OCC", "RP-LC retention time": 967}, {"smiles": "Cn1c(=O)n(C)c2cc(S(=O)(=O)C3CCCCC3)c(NC(=O)c3ccccc3)cc21", "RP-LC retention time": 982}, {"smiles": "Cc1cc(C(=O)N2CCCCC2)c2c(=O)n(CC(=O)Nc3ccc(F)cc3F)c(=O)n(C)c2n1", "RP-LC retention time": 816}, {"smiles": "Cc1cccc(NC(=O)Cn2c(=O)n(-c3ccccc3)c(=O)c3c2cc(C)n3C)c1", "RP-LC retention time": 831}, {"smiles": "Cc1noc(C)c1Cc1c(C(=O)NCCc2noc(C3CC3)n2)noc1C", "RP-LC retention time": 774}, {"smiles": "COC(=O)c1cc(OCC(=O)Nc2ccc(OC)cc2)c2cc(F)ccc2n1", "RP-LC retention time": 796}]}]}
